Test results as given in the supplement of paper PMC6965134.
± gives the standard deviation of the averaged measurements.

Assay: TIMS collisional cross section (CCS, N2) of the lipid ion; higher = larger ion cross section
Details: ionization mode: negative, one isomer drawn
Experimental: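 Lipid extracts of human plasma (NIST SRM 1950), mouse liver or HeLa cells were separated by nanoflow C18 LC (30 min gradient) and analysed by TIMS-PASEF on a timsTOF Pro. Ion mobility was calibrated with the Agilent tuning mix (negative mode ions) and converted to collisional cross sections (Mason–Schamp, N2).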

[1] = sample type: Human plasma, ion (formula + adduct): [C34H62O5-H] 1-
[2] = sample type: Human plasma, ion (formula + adduct): [C36H66O5-H] 1-
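Note: lipids from MTBE extraction, five replicate injections per sample, 100 ms TIMS ramp spanning 0.6–1.95 Vs/cm², lipid identity assigned from PASEF MS/MS spectra.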

## CCCCC/C=C\C/C=C\CCCCCCCC(=O)O[C@@H](CO)COC(=O)CCCCCCCCCCC [DG 12:0@_18:2_0:0]
Sample type: Human plasma, ion (formula + adduct): [C33H60O5-H] 1-
  TIMS collisional cross section: 229.1 Å²

## CCCCC/C=C\C/C=C\CCCCCCCC(=O)O[C@@H](CO)COC(=O)CCCCCCCCCCCC [DG 13:0@_18:2_0:0]
[1]
  TIMS collisional cross section: 244.7 Å²

## CCCCCCCC/C=C\CCCCCCCC(=O)O[C@@H](CO)COC(=O)CCCCCCCCCCCC [DG 13:0_18:1@_0:0]
Sample type: Mouse Liver, ion (formula + adduct): [C34H64O5+AcO] 1-
  TIMS collisional cross section: 252.3 Å²

## CCCCC/C=C\C/C=C\C/C=C\C/C=C\CCCC(=O)O[C@@H](CO)COC(=O)CCCCCCCCCCCCC [DG 14:0@_20:4_0:0]
Sample type: Human plasma, ion (formula + adduct): [C37H64O5+HCOO] 1-
  TIMS collisional cross section: 256.2 Å²

## CCCC/C=C\CCCCCCCC(=O)OC[C@H](CO)OC(=O)CCCCCCCCC/C=C\C/C=C\CCCCC [DG 14:1@_20:2_0:0]
Sample type: Human plasma, ion (formula + adduct): [C37H66O5-H] 1-
  TIMS collisional cross section: 247.2 Å²

## CCCCC/C=C\C/C=C\CCCCCCCC(=O)O[C@@H](CO)COC(=O)CCCCCCCCCCCCCC [DG 15:0@_18:2_0:0]
[2]
  TIMS collisional cross section: 254.4 Å²

## CCCCC/C=C\CCCCCCCC(=O)OC[C@H](CO)OC(=O)CCCCCCC/C=C\CCCCCC [DG 15:1@_16:1_0:0]
[1]
  TIMS collisional cross section: 245.3 Å²

## CCCCC/C=C\CCCCCCCC(=O)OC[C@H](CO)OC(=O)CCCCCCC/C=C\CCCCCCCC [DG 15:1@_18:1_0:0]
[2]
  TIMS collisional cross section: 253.8 Å²

## CC/C=C\C/C=C\C/C=C\CCCCCCCC(=O)O[C@@H](CO)COC(=O)CCCCCCC/C=C\CCCCC [DG 15:1@_18:3_0:0]
Sample type: Human plasma, ion (formula + adduct): [C36H62O5-H] 1-
  TIMS collisional cross section: 251.2 Å²

## CCCCCCCCCCCCCCCC(=O)OC[C@@H](O)COP(=O)(O)O [LPA 16:0_0:0]
Sample type: Human plasma, ion (formula + adduct): [C19H39O7P-H] 1-
  TIMS collisional cross section: 201.2 Å²

## CCCCCC/C=C\CCCCCCCC(=O)OC[C@@H](O)COP(=O)(O)O [LPA 16:1_0:0]
Sample type: Human plasma, ion (formula + adduct): [C19H37O7P-H] 1-
  TIMS collisional cross section: 198.2 Å²

## CCCCCCCC/C=C\CCCCCCCC(=O)OC[C@@H](O)COP(=O)(O)O [LPA 18:1_0:0]
Sample type: Human plasma, ion (formula + adduct): [C21H41O7P-H] 1-
  TIMS collisional cross section: 205 Å²

## CCCCC/C=C\C/C=C\CCCCCCCC(=O)OC[C@@H](O)COP(=O)(O)O [LPA 18:2_0:0]
Sample type: Human plasma, ion (formula + adduct): [C21H39O7P-H] 1-
  TIMS collisional cross section: 207.7 ± 8.1 Å²

## CCCCC/C=C\C/C=C\C/C=C\C/C=C\CCCC(=O)OC[C@@H](O)COP(=O)(O)O [LPA 20:4_0:0]
Sample type: Human plasma, ion (formula + adduct): [C23H39O7P-H] 1-
  TIMS collisional cross section: 207.1 Å²

## CC/C=C\C/C=C\C/C=C\C/C=C\C/C=C\CCCC(=O)OCC(O)COP(=O)(O)O (stereo not drawn) [LPA 20:5]
Sample type: Human plasma, ion (formula + adduct): [C23H37O7P-H] 1-
  TIMS collisional cross section: 206.5 Å²

## CC/C=C\C/C=C\C/C=C\C/C=C\C/C=C\C/C=C\CCC(=O)OC[C@@H](O)COP(=O)(O)O [LPA 22:6_0:0]
Sample type: Human plasma, ion (formula + adduct): [C25H39O7P-H] 1-
  TIMS collisional cross section: 211 Å²
Sample type: Mouse Liver, ion (formula + adduct): [C25H39O7P-H] 1-
  TIMS collisional cross section: 211.6 Å²

## CCCCCCCCCCCCCC(=O)OC[C@@H](O)COP(=O)([O-])OCC[N+](C)(C)C [LPC 14:0_0:0]
Sample type: Human plasma, ion (formula + adduct): [C22H46NO7P+HCOO] 1-
  TIMS collisional cross section: 231.1 ± 0.42 Å²
Sample type: Human plasma, ion (formula + adduct): [C22H46NO7P-CH3] 1-
  TIMS collisional cross section: 219.7 Å²
Sample type: Mouse Liver, ion (formula + adduct): [C22H46NO7P+HCOO] 1-
  TIMS collisional cross section: 231.3 Å²

## CCCCCCCCCCCCCCCC(=O)OC[C@@H](O)COP(=O)([O-])OCC[N+](C)(C)C [LPC 16:0_0:0]
Sample type: Human plasma, ion (formula + adduct): [C24H50NO7P+Cl] 1-
  TIMS collisional cross section: 234.8 Å²
Sample type: Human plasma, ion (formula + adduct): [C24H50NO7P+HCOO] 1-
  TIMS collisional cross section: 238.02 ± 0.4 Å²
Sample type: Human plasma, ion (formula + adduct): [C24H50NO7P-CH3] 1-
  TIMS collisional cross section: 218.1 Å²
Sample type: Mouse Liver, ion (formula + adduct): [C24H50NO7P+HCOO] 1-
  TIMS collisional cross section: 241.2 ± 5.1 Å²
Sample type: Mouse Liver, ion (formula + adduct): [C24H50NO7P-CH3] 1-
  TIMS collisional cross section: 218.7 Å²

## CCCCCC/C=C/CCCCCCCC(=O)OC[C@@H](O)COP(=O)([O-])OCC[N+](C)(C)C [LPC 16:1_0:0]
Sample type: Human plasma, ion (formula + adduct): [C24H48NO7P+HCOO] 1-
  TIMS collisional cross section: 236.14 ± 0.68 Å²
Sample type: Human plasma, ion (formula + adduct): [C24H48NO7P-CH3] 1-
  TIMS collisional cross section: 237.8 Å²
Sample type: Mouse Liver, ion (formula + adduct): [C24H48NO7P+HCOO] 1-
  TIMS collisional cross section: 235 ± 0.42 Å²

## CCCCCCCCCCCCCCCCCC(=O)OC[C@@H](O)COP(=O)([O-])OCC[N+](C)(C)C [LPC 18:0_0:0]
Sample type: Human plasma, ion (formula + adduct): [C26H54NO7P+HCOO] 1-
  TIMS collisional cross section: 246.01 ± 2.8 Å²
Sample type: Human plasma, ion (formula + adduct): [C26H54NO7P-CH3] 1-
  TIMS collisional cross section: 225.5 Å²
Sample type: Mouse Liver, ion (formula + adduct): [C26H54NO7P+HCOO] 1-
  TIMS collisional cross section: 244.8 ± 0.42 Å²

## CC/C=C\C/C=C\C/C=C\CCCCCCCC(=O)OC[C@@H](O)COP(=O)([O-])OCC[N+](C)(C)C [LPC 18:3_0:0]
Sample type: Human plasma, ion (formula + adduct): [C26H48NO7P+HCOO] 1-
  TIMS collisional cross section: 238.3 ± 0.42 Å²
Sample type: Human plasma, ion (formula + adduct): [C26H48NO7P-CH3] 1-
  TIMS collisional cross section: 220.2 Å²

## CCCCCCCCCCCCCCCCCCCC(=O)OC[C@@H](O)COP(=O)([O-])OCC[N+](C)(C)C [LPC 20:0_0:0]
Sample type: Human plasma, ion (formula + adduct): [C28H58NO7P+HCOO] 1-
  TIMS collisional cross section: 253 Å²

## CCCCC/C=C\C/C=C\CCCCCCCCCC(=O)OC[C@@H](O)COP(=O)([O-])OCC[N+](C)(C)C [LPC 20:2_0:0]
Sample type: Human plasma, ion (formula + adduct): [C28H54NO7P+HCOO] 1-
  TIMS collisional cross section: 246.6 Å²
Sample type: Mouse Liver, ion (formula + adduct): [C28H54NO7P+HCOO] 1-
  TIMS collisional cross section: 245.7 ± 0.42 Å²

## CCCCC/C=C\C/C=C\C/C=C\CCCCCCC(=O)OC[C@@H](O)COP(=O)([O-])OCC[N+](C)(C)C [LPC 20:3_0:0]
Sample type: Human plasma, ion (formula + adduct): [C28H52NO7P+HCOO] 1-
  TIMS collisional cross section: 245.03 ± 0.87 Å²
Sample type: Human plasma, ion (formula + adduct): [C28H52NO7P-CH3] 1-
  TIMS collisional cross section: 225.9 Å²

## CCCCC/C=C\C/C=C\C/C=C\C/C=C\CCCC(=O)OC[C@@H](O)COP(=O)([O-])OCC[N+](C)(C)C [LPC 20:4_0:0]
Sample type: Human plasma, ion (formula + adduct): [C28H50NO7P+HCOO] 1-
  TIMS collisional cross section: 243.1 Å²
Sample type: Human plasma, ion (formula + adduct): [C28H50NO7P-CH3] 1-
  TIMS collisional cross section: 225.9 ± 0.85 Å²

## CC/C=C\C/C=C\C/C=C\C/C=C\C/C=C\CCCC(=O)OC[C@@H](O)COP(=O)([O-])OCC[N+](C)(C)C [LPC 20:5_0:0]
Sample type: Human plasma, ion (formula + adduct): [C28H48NO7P+HCOO] 1-
  TIMS collisional cross section: 242.5 Å²
Sample type: Human plasma, ion (formula + adduct): [C28H48NO7P-CH3] 1-
  TIMS collisional cross section: 224.7 Å²
Sample type: Mouse Liver, ion (formula + adduct): [C28H48NO7P+HCOO] 1-
  TIMS collisional cross section: 241.9 Å²

## CCCCCCCCCCCCCCCCCCCCCC(=O)OC[C@@H](O)COP(=O)([O-])OCC[N+](C)(C)C [LPC 22:0_0:0]
Sample type: Human plasma, ion (formula + adduct): [C30H62NO7P+HCOO] 1-
  TIMS collisional cross section: 258.6 Å²
Sample type: Mouse Liver, ion (formula + adduct): [C30H62NO7P+HCOO] 1-
  TIMS collisional cross section: 258.6 Å²

## CCCCC/C=C\C/C=C\CCCCCCCCCCCC(=O)OC[C@@H](O)COP(=O)([O-])OCC[N+](C)(C)C [LPC 22:2_0:0]
Sample type: Human plasma, ion (formula + adduct): [C30H58NO7P+HCOO] 1-
  TIMS collisional cross section: 254.2 Å²

## CCCCC/C=C\C/C=C\C/C=C\C/C=C\CCCCCC(=O)OC[C@@H](O)COP(=O)([O-])OCC[N+](C)(C)C [LPC 22:4_0:0]
Sample type: Human plasma, ion (formula + adduct): [C30H54NO7P+HCOO] 1-
  TIMS collisional cross section: 249 ± 0.42 Å²
Sample type: Human plasma, ion (formula + adduct): [C30H54NO7P-CH3] 1-
  TIMS collisional cross section: 231.5 Å²
Sample type: Mouse Liver, ion (formula + adduct): [C30H54NO7P+HCOO] 1-
  TIMS collisional cross section: 248.7 Å²

## CC/C=C\C/C=C\C/C=C\C/C=C\C/C=C\C/C=C\CCC(=O)OC[C@@H](O)COP(=O)([O-])OCC[N+](C)(C)C [LPC 22:6_0:0]
Sample type: Human plasma, ion (formula + adduct): [C30H50NO7P+HCOO] 1-
  TIMS collisional cross section: 246.7 ± 0.42 Å²
Sample type: Human plasma, ion (formula + adduct): [C30H50NO7P-CH3] 1-
  TIMS collisional cross section: 230.4 Å²
Sample type: Mouse Liver, ion (formula + adduct): [C30H50NO7P+HCOO] 1-
  TIMS collisional cross section: 247 Å²

## CCCCCCCCCCCCCCCCOCC(O)COP(=O)([O-])OCC[N+](C)(C)C (stereo not drawn) [LPC O- 16:0]
Sample type: Human plasma, ion (formula + adduct): [C24H52NO6P+HCOO] 1-
  TIMS collisional cross section: 236.6 Å²
